The test deals with TGFβ signal. In words: TGFβ signal inhibitory activity, (SBE)4-Luc reporter in A549 cells (Test Examples 1A and 1B). To be noted: Homo sapiens. The format is cell-based, human. Here is the method: Test Example 1A: TGFβ signal inhibitory activity (in vitro test) The compounds according to the present invention was evaluated for TGFβ signal inhibitory activity according to the method described in J. Boil .Chem., 273, 21145-21152 (1998). Specifically, a plasmid having four tandem binding sequences of Smad3, a TGF-beta signal transducer, to the upstream of a luciferases gene were used as a reporter plasmid ((SBE)4-Luc) to detect TGF-beta signal, This reporter gene was introduced into human pulmonary carcinoma epithelial cells (A549) (available from ATCC) to establish a stable cell line. A test compound and TGFβ-1 (2 ng/ ml) were added to the cells, and the mixture was cultured for 4 hr. In this case, the compounds according to the present invention synthesized in the Examples were used as the test compound. After the culture, the luciferase activity of the cells were measured by chemiluminescence (Steady Glo (trademark) luciferase assay system, available from Promega). Likewise, the luciferase activity was measured as a control against the culture of cells with the addition of TGFβ only and the culture of cells without the addition of both TGFβ and the test compound.
The TGFβ inhibition (%) was calculated by the following equation, based on the measurement results. TGFβ inhibition(%) = (A-B)/(A-C) × 100 [formula] wherein • A: luciferase activity with the addition of TGFβ1 and without the addition of test compound (relative luciferase unit), • B: luciferase activity with the addition of both TGFβ1 and test compound (relative luciferase unit), and • C: luciferase activity without the addition of both TGFβ1 and test compound (relative luciferase unit).
The test was carried out for each of test compound at the concentrations of 3 µM and 10 µM. For certain test compounds, the test was further carried out for test compound at the concentration of 1 µM.
For the compounds of Reference Examples, the TGFβ signal inhibitory activity was evaluated in the same manner as in Test Example 1A.

Setting [1] is: A549, test compound 3 µM, TGFβ-1 2 ng/ml, 4 hr, Table 1A, read-out: TGFβ inhibition rate, %.
Where [2] appears, read: A549, test compound 10 µM, TGFβ-1 2 ng/ml, 4 hr, Table 1A, read-out: TGFβ inhibition rate, %.
Setting [3] is: A549, test compound 3 µM, Reference Examples, Table 1B, read-out: TGFβ inhibition rate, %.
Where [4] appears, read: A549, test compound 10 µM, Reference Examples, Table 1B, read-out: TGFβ inhibition rate, %.
The mark [5] stands for this setting: A549, 3 µM, compounds of Reference Examples (Test Example 1B), read-out: TGFβ inhibition rate, %.
[6] abbreviates: A549, 10 µM, compounds of Reference Examples (Test Example 1B), read-out: TGFβ inhibition rate, %.

Our source for the inhibition values is EP1724268A1, “COMPOUND HAVING TGF-BETA INHIBITORY ACTIVITY AND PHARMACEUTICAL COMPOSITION CONTAINING SAME” (KIRIN BEER KABUSHIKI KAISHA, priority 2004, dated 2005).

For orientation: inhibition means the change of the read-out against control, counted positive when it falls.

Read-outs that look alike come from different tables or passages of the source.

Take `Cc1cc(Oc2ccnc3ccc(-c4cc5ccccc5o4)cc23)c(-c2ccccn2)nc1C` [Compound 166, 3-(6-Benzofuran-2-yl-quinolin-4-yloxy)-5,6-dimethyl-[2,2']bipyridine]: the inhibition at 3 µM under setting [1] stood at 78%. Also, the inhibition at 10 µM under setting [2] was found to be 100%. Consider `COc1cc2c(Oc3ccc(C)cc3C(=O)c3ccccc3)ccnc2cc1OCC(O)CN1CCOCC1` (stereo not drawn) [Compound r159], for which the inhibition at 3 µM under setting [3] stood at 98%. Further, under setting [4], the inhibition at 10 µM amounted to 100%.

Turning to `CCc1nc2ccncc2cc1Oc1ccnc2cc(OC)c(OC)cc12` [r424], the inhibition at 3 µM under setting [5] was 28%. Further, the inhibition at 10 µM under setting [6] was determined as 79%.

`COc1cc2nccc(Oc3ccc(C)nc3-c3ccc(C(C)=O)cc3)c2cc1OC` [Compound r246]: the inhibition at 3 µM under setting [5] was determined as 64%. In addition, under setting [6], the inhibition at 10 µM was found to be 93%.

Turning to `COc1cc2c(Oc3cc4ccccc4nc3C)ccnc2cc1OCCN1C(=O)c2ccccc2C1=O` [Compound r367], the inhibition at 3 µM under setting [5] was determined as 95%. Besides, under setting [6], the inhibition at 10 µM stood at 98%. For the compound `COC(=O)COc1cc2nccc(Oc3cc4ccccc4nc3C)c2cc1OC` [Compound r371], the inhibition at 3 µM under setting [5] came to 28%. Moreover, the inhibition at 10 µM under setting [6] came out at 90%.

In the case of `COc1cc2nccc(Oc3cc4ccccc4nc3-c3cccnc3)c2cc1OC` [Compound r288], the inhibition at 3 µM under setting [5] was found to be 94%. For the same compound, the inhibition at 10 µM under setting [6] stood at 100%. `COc1ccc2ncnc(Oc3cc(C)c(C)nc3-c3ccccn3)c2c1` [Compound 26, 4-(5,6-Dimethyl-[2,2']bipyridin-3-yloxy)-6-methoxy-quinazoline]: the inhibition at 3 µM under setting [1] came to 83%. For the same compound, the inhibition at 10 µM under setting [2] was 99%. With `COc1cc2c(Oc3ccc(C)cc3C(=O)c3ccccc3)ccnc2cc1OCCNCCO` [r124], the inhibition at 3 µM under setting [3] amounted to 99%. The inhibition at 10 µM under setting [4] is 100%. For `COc1cc2nccc(Oc3ccc(O)cc3C(C)=O)c2cc1OC` [r176], the inhibition at 3 µM under setting [5] was found to be 32%. Also, the inhibition at 10 µM under setting [6] was 67%. As for `COc1cc2c(Oc3cc(C)c(C)cc3C(C)=O)ccnc2cc1OCCCCl` [Compound r318], the inhibition at 3 µM under setting [5] is 82%. The inhibition at 10 µM under setting [6] was 100%.

In the case of `COc1cc2nccc(Oc3ccc(C)nc3C(OC(C)=O)c3ccccc3)c2cc1OC` (stereo not drawn) [r218], the inhibition at 3 µM under setting [5] was found to be 21%. Under setting [6], the inhibition at 10 µM was determined as 56%.

Take `Cc1cc(Oc2ccnc3ccc(O)cc23)c(-c2ccccn2)nc1C` [Compound 139, 4-(5,6-Dimethyl-[2,2']bipyridinyl-3-yloxy)-quinolin-6-ol]: the inhibition at 3 µM under setting [1] was found to be 100%. Under setting [2], the inhibition at 10 µM amounted to 100%. `COc1cc2nccc(Oc3ccc(Cl)cc3C(=O)Nc3ccc(Cl)c(Cl)c3)c2cc1OC` [Compound r107]: under setting [3], the inhibition at 3 µM turned out to be 0%. In addition, the inhibition at 10 µM under setting [4] worked out at 82%.

Take `COc1cc2nccc(Oc3ccc(C)nc3-c3cccc(C)c3)c2cc1OC` [Compound r229]: the inhibition at 3 µM under setting [5] stood at 99%. Besides, the inhibition at 10 µM under setting [6] worked out at 100%.

Regarding `COc1cc2nccc(Oc3ccc(C)nc3-c3ccccn3)c2cc1OC` [r261], the inhibition at 3 µM under setting [5] came to 100%. The inhibition at 10 µM under setting [6] came out at 100%. On to `COc1cc2c(Oc3ccc(C)cc3C(=O)c3ccccc3)ccnc2cc1OCCCNCCO` [Compound r133], for which, under setting [3], the inhibition at 3 µM was determined as 100%. Moreover, under setting [4], the inhibition at 10 µM amounted to 100%.

As for `COc1cc2nccc(Oc3cnc4ccccc4c3)c2cc1OC` [r275], under setting [5], the inhibition at 3 µM was found to be 45%. Under setting [6], the inhibition at 10 µM stood at 90%. Taken in the same sequence, the figures for `COc1cc2nccc(Oc3cc(C)nc4ccccc34)c2cc1OC` [Compound r309] were 41% and 79%.

Regarding `C=C(C)C(=O)Oc1ccc(C(=O)c2ccccc2)c(Oc2ccnc3cc(OC)c(OC)cc23)c1` [Compound r67], the inhibition at 3 µM under setting [3] stood at 4%. Also, under setting [4], the inhibition at 10 µM amounted to 93%. For `COc1cc2nccc(Oc3cc(C)c(C)cc3C(C)=NN)c2cc1OC` [Compound r193, {1-[2-(6,7-Dimethoxy-quinolin-4-yloxy)-4,5-dimethylphenyl]-ethylidene}-hydrazine], the inhibition at 3 µM under setting [5] was determined as 74%. Further, the inhibition at 10 µM under setting [6] turned out to be 99%. For the compound `COc1cc2nccc(Oc3ccc(C)cc3CN3CCCCC3)c2cc1OC` [Compound r6, 6,7-Dimethoxy-4-[4-methyl-2-(piperidinomethyl)phenoxy]quinoline], the inhibition at 3 µM under setting [3] was 30%. The inhibition at 10 µM under setting [4] came out at 72%.

In the case of `COc1cc2c(Oc3cc4ccccc4nc3C)ccnc2cc1OCCCn1ccnc1` [Compound r381], the inhibition at 3 µM under setting [5] was 100%. Moreover, the inhibition at 10 µM under setting [6] was 100%. Take `CCC(=O)c1cc(Cl)ccc1Oc1ccnc2cc(OC)c(OC)cc12` [r46]: the inhibition at 3 µM under setting [3] turned out to be 70%. For the same compound, the inhibition at 10 µM under setting [4] came out at 100%. As to `COc1cc2nccc(Oc3ccc(C)nc3-c3cccc(C#N)c3)c2cc1OC` [Compound r234], the inhibition at 3 µM under setting [5] turned out to be 87%. The inhibition at 10 µM under setting [6] came to 100%. Taken in the same sequence, the figures for `COc1cc2nccc(Oc3ccc4[nH]ccc4c3)c2cc1OC` [r293] were 65% and 95%. For `Cc1sc2ncnc(Oc3cc4cccnc4nc3-c3ccccc3)c2c1C` [Compound 78, 3-(5,6-Dimethyl-thieno[2,3-d]pyrimidin-4-yloxy)-2-phenyl-[1,8] naphthyridine], the inhibition at 3 µM under setting [1] came to 75%. Moreover, the inhibition at 10 µM under setting [2] was found to be 99%. As for `COc1cc2nccc(Oc3ccc(C)cc3C(=O)c3ccccc3)c2cc1OC` [r72], the inhibition at 3 µM (A549, read-out: TGFβ inhibition rate, %) came to 98%. For the compound `COc1cc2nccc(Oc3cc(C)nc4ccc(F)cc34)c2cc1OC` [Compound r308], the inhibition at 3 µM under setting [5] was found to be 21%. Besides, the inhibition at 10 µM under setting [6] was 56%. Take `Cc1cc(Oc2ncnc3sccc23)c(-c2ccccn2)nc1C` [Compound 32, 5,6-Dimethyl-3-(thieno[2,3-d]pyrimidin-4-yloxy)-[2,2']bipyridine]: the inhibition at 3 µM under setting [1] stood at 64%. In addition, the inhibition at 10 µM under setting [2] was found to be 94%.

As for `COc1cc(OC)c(C(C)=O)c(Oc2ccnc3cc(OC)c(OC)cc23)c1` [r40], the inhibition at 3 µM under setting [3] is 12%. Further, the inhibition at 10 µM under setting [4] stood at 83%. Regarding `COc1cc2c(Oc3ccc(C)nc3-c3nccs3)ccnc2cc1OCC(CO)CO` [Compound r330], the inhibition at 3 µM under setting [5] worked out at 100%. In addition, the inhibition at 10 µM under setting [6] came to 100%.

On to `COc1cc2nccc(Oc3cc4cccnc4nc3-c3ccncc3)c2cc1OC` [Compound 89, 3-(6,7-Dimethoxy-quinolin-4-yloxy)-2-pyridin-4-yl-[1,8]naphthyridine], for which, under setting [1], the inhibition at 3 µM was 36%. The inhibition at 10 µM under setting [2] came to 77%. Turning to `COc1cc2nccc(Oc3cnc4ncccc4c3)c2cc1OC` [Compound r427], the inhibition at 3 µM under setting [5] was 44%. In addition, under setting [6], the inhibition at 10 µM was 80%. Regarding `COc1cc2c(Oc3cc(C)c(C)nc3-c3cccnc3)ccnc2cc1OCCCO` [Compound r347], the inhibition at 3 µM under setting [5] is 100%. As for `c1ccc(-c2nc3ncccc3cc2Oc2ccnc3cccnc23)cc1` [Compound 73, 4-(2-Phenyl-[1,8]naphthyridin-3-yloxy)-[1,5]naphthyridine], the inhibition at 3 µM under setting [1] was 26%. Also, the inhibition at 10 µM under setting [2] amounted to 80%. For the compound `COc1cc2c(Oc3cc4ccccc4nc3C)ccnc2cc1OCC(CO)CO` [Compound r387], the inhibition at 3 µM under setting [5] came to 99%. For the same compound, under setting [6], the inhibition at 10 µM amounted to 100%.
